According to US20240059739A1, “PEPTIDES FOR INCREASING DRUG DELIVERY TO CANCER” (Chapman University, priority 2022, published 2024):
Like-named read-outs stand apart in the source and are kept apart here.

Experiments:
A375 melanoma cells = assay: In vitro cytotoxicity detected by MTT colorimetric assay; type: cell-based, human
Procedure: The bar represents the average fluorescence density of three cell lines (A375, Sk-mel-28, and wm3211 cells) detected by fluorescence-activated cell sorting (FACS) analysis. The cells were incubated with FITC-labeled peptide for […] at 37° C. (0.5 μM, grey bar; 1 μM, dark bar). The control is cells incubated with FITC alone. […] Cells were either treated with DOX or co-treated with DOX and KK-11 (1 μM) for 72 h (KK-11+DOX) or pretreated with KK-11 for 4 h, then washed away following a DOX 72 h treatment (KK-11 to DOX). Control is DMSO or KK-11 alone. Cell viability was detected by a MTT colorimetric assay. Statistical analysis was performed with a student's t-test, and error bars denote mean±SD; **, p<0.01; ***, p<0.001 compared to DOX alone. […] Cells were treated with MAC-3-190 at various concentrations with or without 1 μM KK-11 for 72 h. Cell viability was detected by MTT assay. The assays were repeated independently at least three times.
In vitro cytotoxicity detected by MTT colorimetric assay. Cells were seeded in a 96-well plate and allowed to adhere overnight prior to adding the compound. After 72 h of treatment in serum-free media, an MTT solution was added to each well to give a final concentration of 0.5 mg/mL and was incubated for 3 h. Formed crystals were solubilized, and the absorbance was measured at 595 nm.

[1] = test system: human melanoma cell lines (A375, Sk-mel-28, wm115) compared to normal human HEK-293 cells; assay: Peptide array-whole cell binding assay (CyQUANT fluorescence); type: cell-based; conditions: average fluorescent intensity of melanoma cells (A375, Sk-mel-28, wm115) bound to peptide divided by that of HEK-293 cells bound to same peptide
Source text: Peptide array synthesis. Fifty-three peptide sequences were synthesized in duplicate on derivatized cellulose membrane (Intavis, Germany) using a ResPep SL Autospot robot. The detailed method was explained previously (Ahmed et al. Anal Chem. 82:7533-7541, 2010; Hossein-Nejad-Ariani et al. Sci Rep. 9:2723, 2019). Briefly, the sequences of peptides were entered in the robot software, and 384 spot synthesis mode was selected for this library. First, the membrane was dipped in DMF for an hour followed by transfer and support to the holder of the robot on filter paper. Then the membrane was washed with ethanol and subjected to a vacuum to remove any bubbles under the membrane. The Fmoc strategy was used for peptide synthesis. DIC and Oxyma pure were used as coupling reagent and racemization suppressor, respectively. After each coupling, capping of unreacted amino acids was done using acetic anhydride (3%), followed by 20% piperidine for Fmoc deprotection. The C-terminal end of all peptides were bound to the membrane. Following the synthesis, the membrane was dipped in deprotection solution containing 15 mL TFA, 15 mL DCM, 900 μL TIPS, and 600 μL water, and kept for 3 h at room temperature. Next, membranes were thoroughly washed with DCM, DMF, and ethanol. Finally, they were air dried and kept in a sealed bag at −20° C. until use.
Peptide array cell binding assay. The sequential steps of the assay are as described in a previous publication (Ahmed et al. 2010; Soudy et al. J Med Chem. 54:7523-7534, 2011). The membrane was dipped in ethanol for 30 sec to remove any precipitation of hydrophobic peptides. Then the membrane was dipped in sterile PBS at pH 7.4 for 30 min. The cells (75×10^3 cells/mL) were seeded directly on the membrane in a sterile plate and incubated at 37° C. for 4 h. After washing off the unbound cells with sterile PBS, pH 7.4, the membrane was frozen at −80° C. for 2 h. Subsequently, it was defrosted at room temperature and incubated in CyQUANT solution at 37° C. for 30 min following the manufacturer's protocol. The membrane was then washed with sterile PBS and air-dried.
Membranes were scanned using the ChemiDoc™ XRS+system (Bio-Rad) to analyze the fluorescence intensity of each spot. The setting was adjusted based on the excitation and emission wavelength of the CyQUANT dye at 465 nm and 535 nm, respectively. The fluorescence intensity (FI) was normalized by the FI of non-cancerous HEK-293 cells.
A library of 53 peptides was synthesized in an array format on a cellulose membrane using SPOT synthesis (Table 1). The peptide library was designed starting with five lead cancer cell targeting peptides, Arg peptide (1, Table 1), p160 analogue (11), RGD (16), GE11 (20), and LSD (37). Conservative substitutions, deletion from the N- or C-terminus, alanine scan, and scrambling of amino acids were used to design the analogues for the library. The peptides were screened for specific binding to three human melanoma cell lines. The cells were incubated with the cellulose membranes with conjugated peptides followed by incubation with CyQUANT fluorescence dye. A brief schematic for the peptide array-whole cell binding assay for screening peptides with high affinity for melanoma cells is shown in FIG. 2A. The relative cell adhesion capacities of the peptides to A375 (FIG. 2B), Sk-mel-28 (FIG. 2C), and wm115 were estimated based on the fluorescence of the bound melanoma cells compared to normal human HEK-293 cells.

[2] = test system: human melanoma A375 tumor xenografts and organs; assay: In vivo and ex vivo imaging of biodistribution in mice bearing A375 xenografts; set-up: species or system athymic nude mice
Procedure: FIG. 4A and FIG. 4B-1 and FIG. 4B-2 show in vivo and ex vivo organ distribution images of VivoTag 680 XL-labeled D-aa KK-11 in athymic nude mice bearing human melanoma A375 tumors. Saline or VivoTag-KK-11 in a dose of 8 μg per mouse was injected into the mice via the tail vein (n=2 for each time point).
The top panels represent the scanned images of the tumor section area in coronal views. The bottom-row pictures display the fluorescence image in trans-axial views: arrows point to the spine, and circles mark the xenograft tumors.
Organs including tumor xenografts (T), liver (L), spleen (S), heart and lungs (H+L), kidneys (K), and brain (B) were excised and imaged using the IVIS Spectrum imaging system. Representative fluorescence images of different organs show peptide distribution at different time points as indicated.
Ex vivo and in vivo imaging. The study was carried out in compliance with Animal Research: Reporting of In Vivo Experiments (ARRIVE) guidelines. All the animal procedures were approved by the Institutional Animal Care and Use Committee (IACUC) at Chapman University and conducted in compliance with the policies of Chapman University, and federal, state, and local animal welfare authorities. Male and female athymic nude mice (4-6 weeks old) were kept (5 in each cage) in a pathogen-free environment. Approximately 10^6 human melanoma A375 cells (0.1 mL in normal saline), mixed with 0.1 mL cold Matrigel (#354248; Corning, Corning, NY), were injected subcutaneously in the flank. The tumor size was measured with a caliper, and body weight was recorded once a week. When the tumor size reached approximately 800-1000 mm^3 as calculated using the following formula: [Length×(Width^2)]/2 (in mm), mice were processed for in vivo or ex vivo imaging.
For in vivo imaging, normal saline or VivoTag-KK-11 at a dose of 8 μg per mouse was injected into the mice via the tail vein (n=2 for each time point). The animals were then scanned at different time intervals (0.5, 2, 6, and 24 h) using an IVIS Spectrum in vivo imaging system (PerkinElmer, Waltham, MA). The mice were imaged for 0.5 sec, 10 bin, level B at an emission wavelength of 688±5 nm. Imaging was limited to no more than once a day and was conducted under continuously maintained isoflurane. Mice were maintained on alfalfa-free diets to minimize the background fluorescence. All the study animals survived through the in vivo imaging procedure.
For ex vivo imaging at defined time intervals (5, 15, 30 min, followed by 1, 1.5, 2, 3, 4, 6, 24, and 48 h) following fluorescence conjugate injection, animals were euthanized via carbon dioxide inhalation (n=2 for each time point); tumor, liver, spleen, heart, lungs, brain, and kidneys were collected and briefly rinsed with saline. The organs were then imaged for 0.5 sec, 10 bin, level B at an emission wavelength of 688±5 nm using an IVIS Spectrum imaging system.

[3] = in vivo IVIS CT-fluorescence imaging of live mice

COc1cccc2c1C(=O)c1c(O)c3c(c(O)c1C2=O)C[C@@](O)(C(=O)CO)C[C@@H]3O[C@H]1C[C@H](N)[C@H](O)[C@H](C)O1 [DOX, doxorubicin]
viability at 0.5 µM (A375 melanoma cells; Homo sapiens, A-375, 72 h, DOX 0.5 μM alone, 72 h, A375, read-out: cell viability, of control): 62% | viability at 1 µM (A375 melanoma cells; Homo sapiens, A-375, 72 h, DOX 0.5 μM co-treatment with KK-11 (1 μM), 72 h, A375, read-out: cell viability, of control): 40% | viability at 1 µM (A375 melanoma cells; Homo sapiens, A-375, 72 h, DOX 1 μM alone, 72 h, A375, read-out: cell viability (cells survived)): 24% | viability at 1 µM (A375 melanoma cells; Homo sapiens, A-375, 72 h, DOX 1 μM in combination with KK-11 (1 μM), 72 h, A375, read-out: cell viability, of control): 14% | change of DOX cytotoxicity (A375 melanoma cells; KK-11 and DOX sequentially (KK-11 pretreatment 4 h, washed, then DOX 72 h)): failed to produce any changes on DOX cytotoxicity

ADRSKGKLA [Peptide 39]
Fluorescence Ratio [1]: 1.27

AGRKLDSKA [Peptide 38]
Fluorescence Ratio [1]: 1.39

AHWYGYTPQNVI [Peptide 23]
Fluorescence Ratio [1]: 1.31

ALSDGKRKA [Peptide 40]
Fluorescence Ratio [1]: 1.23

ALSGKRKC [Peptide 41]
Fluorescence Ratio [1]: 1.32

CASDGKRKC [Peptide 42]
Fluorescence Ratio [1]: 1.25

CLADGKRKC [Peptide 43]
Fluorescence Ratio [1]: 1.26

CLSAGKRKC [Peptide 44]
Fluorescence Ratio [1]: 1.44

CLSDAKRKC [Peptide 45]
Fluorescence Ratio [1]: 1.22

CLSDGARKC [Peptide 46]
Fluorescence Ratio [1]: 1.35

CLSDGKAKC [Peptide 47]
Fluorescence Ratio [1]: 1.27

CLSDGKRAC [Peptide 48]
Fluorescence Ratio [1]: 1.12

CLSDGKRKA [Peptide 49]
Fluorescence Ratio [1]: 1.57

CLSDGKRKC [Peptide 37]
Fluorescence Ratio [1]: 1.29

CLSDGKRRC [Peptide 52]
Fluorescence Ratio [1]: 1.27

CLSDGRRKC [Peptide 51]
Fluorescence Ratio [1]: 1.32

CLSEGKRKC [Peptide 50]
Fluorescence Ratio [1]: 1.38

EPAAYQRFTA [Peptide 13]
Fluorescence Ratio [1]: 1.39

FVPWLEAPYA [Peptide 15]
Fluorescence Ratio [1]: 1.61

GARPRPRPRP [Peptide 6]
Fluorescence Ratio [1]: 1.37

GRAPRPRPRP [Peptide 7]
Fluorescence Ratio [1]: 1.47

GRRPAPRPRP [Peptide 8]
Fluorescence Ratio [1]: 1.57

GRRPRPAPRP [Peptide 9]
Fluorescence Ratio [1]: 1.51

GRRPRPRPAP [Peptide 10]
Fluorescence Ratio [1]: 1.31

GRRPRPRPRPW [Peptide 2]
Fluorescence Ratio [1]: 1.60

GRRPRPRPRPWW [Peptide 3]
Fluorescence Ratio [1]: 1.50

GRRPRPRPRPWWW [Peptide 4]
Fluorescence Ratio [1]: 1.46

GRRPRPRPRPWWWW [Peptide 5]
Fluorescence Ratio [1]: 1.43

RGDAAYQRFL [Peptide 16]
Fluorescence Ratio [1]: 1.47

RGDPAYQGRFL [Peptide 19]
Fluorescence Ratio [1]: 1.35

RGEPAYQGRFL [Peptide 18]
Fluorescence Ratio [1]: 1.24

RGEPAYQRFL [Peptide 17]
Fluorescence Ratio [1]: 1.30

RVPWLEAPYA [Peptide 14]
Fluorescence Ratio [1]: 1.42

VivoTag- Aβ-VPWxEPAYQrFL [VivoTag-KK-11]
brain penetration ([2]; ex vivo imaging): no brain penetration was observed | time by which cleared from other organs (lungs, heart, spleen) ([2]; ex vivo imaging): ≤ 6 h | time detected in kidneys ([2]; ex vivo imaging): up to 48 h | time at which fluorescence is evident in tumor xenografts ([2]; ex vivo imaging, 8 μg per mouse, tail vein): ≤ 5 min | time by which distributed to the xenograft tumor [2, 3]: ≤ 30 min | time fluorescence remained detectable in tumor xenografts [2, 3]: 25 h

WLSDGKRKC [Peptide 53]
Fluorescence Ratio [1]: 1.12

WQTNYIHPYVYG [Peptide 21]
Fluorescence Ratio [1]: 1.21

WXEAAYQRFL [Peptide 12]
Fluorescence Ratio [1]: 1.31

YAWYGYTPQNVI [Peptide 24]
Fluorescence Ratio [1]: 1.15

YGPWYNHYITQV [Peptide 22]
Fluorescence Ratio [1]: 1.28

YHAYGYTPQNVI [Peptide 25]
Fluorescence Ratio [1]: 1.28

YHWAGYTPQNVI [Peptide 26]
Fluorescence Ratio [1]: 1.29

YHWYGATPQNVI [Peptide 27]
Fluorescence Ratio [1]: 1.19

YHWYGTPQNVI [Peptide 20]
Fluorescence Ratio [1]: 1.20

YHWYGYAPQNVI [Peptide 28]
Fluorescence Ratio [1]: 1.26

YHWYGYTAQNVI [Peptide 29]
Fluorescence Ratio [1]: 1.32

YHWYGYTPANVI [Peptide 30]
Fluorescence Ratio [1]: 1.30

YHWYGYTPENVI [Peptide 34]
Fluorescence Ratio [1]: 1.36

YHWYGYTPQAVI [Peptide 31]
Fluorescence Ratio [1]: 1.33

YHWYGYTPQDVI [Peptide 35]
Fluorescence Ratio [1]: 1.35

YHWYGYTPQKVI [Peptide 36]
Fluorescence Ratio [1]: 1.23

YHWYGYTPQNAI [Peptide 32]
Fluorescence Ratio [1]: 1.29

YHWYGYTPQNVA [Peptide 33]
Fluorescence Ratio [1]: 1.35
